Results from patent US8815835B2, “9-aminonoscapine and its use in treating cancers, including drug-resistant cancers” (Emory University, priority 2008, dated 2014).

Legend:
[1] = test system: panel of 60 human tumor cell lines; assay: NCI 60-tumor cell line panel, Sulforhodamine B proliferation assay; type: cell-based; details: 48 h treatment, in words; IC50 values only in FIG. 2
Description: The panel of 60 human tumor cell lines is organized into subpanels representing leukemia, non-small cell lung, colon, CNS, melanoma, renal, ovarian, breast and prostrate cancer lines. Cells were treated with 9-aminonoscapine at increasing gradient concentrations for 48 h. The IC50 values, which stand for the drug concentration needed to prevent cell proliferation by 50% was then measured using an in vitro Sulforhodamine B assay. Panels show bar-graphically the comparison of IC50 values of 9-aminonoscapine (black bars) for cancer cell lines of various tissue origins.

[2] = test system: teniposide-resistant variant CEM/VM-1-5; assay: Cell proliferation inhibition, CEM/VM-1-5; type: cell-based, human; details: CEM/VM-1-5, in words
[3] = test system: human lymphoblastoid cells CEM; assay: Cell proliferation inhibition, CEM; type: cell-based; details: in words
[4] = test system: vinblastine-resistant variant CEM/VLB100; assay: Cell proliferation inhibition, CEM/VLB100; type: cell-based, human; details: CEM/VLB100, in words
tubulin [5] = assay: Sedimentation assay of tubulin polymerization (polymer mass); type: biochemical; details: for Average % increase in polymer level: tubulin 10 μM, 37° C., 30 min
Description: Tubulin solution was centrifuged for 10 min at 80000 g at 4° C. Soluble tubulin was measured by Bradford method. Tubulin (10 μM) was mixed with different concentrations of 9-amino-Noscapine ([…]) in the assembly buffer (100 mM PIPES at pH 6.8, 3 mM MgSO4, 1 mM EGTA, 1 mM GTP, and 1 M sodium glutamate). A reaction control with DMSO was also set up.
Polymerization was carried on by maintaining the temperature at 37° C. in the water bath for 30 min. After polymerization, the reaction mixture was centrifuged at 120000 g at 30° C. for 30 min. The soluble tubulin content was measured by Bradford method. Polymer mass of tubulin was found out by deducting soluble tubulin mass from the total tubulin content.
Tubulin was polymerized in presence or absence of 9-aminonoscapine to observe its effect on polymer formation. Polymer mass of tubulin was measured by sedimentation assay. Before polymerization soluble tubulin comprises total tubulin. Total tubulin content was measured by measuring soluble tubulin by Bradford method. After polymerization, soluble tubulin content was measured and deducted from total tubulin content to find out the polymeric tubulin level.

[6] = test system: paclitaxel-resistant variant (1A9/PTX22); assay: Cell proliferation inhibition, 1A9/PTX22; type: cell-based; details: 1A9/PTX22, in words
tubulin [7] = assay: Tubulin binding assay (fluorescence quenching, dissociation constant); details: 2 μM tubulin, 25 mM PIPES pH 6.8, 30 min at 25° C.; double reciprocal plot; mean±SD, four experiments
Description: Noscapine and 9-aminonoscapine (0-150 μM) were incubated with 2 μM tubulin in 25 mM PIPES, pH 6.8, 3 mM MgSO4, and 1 mM EGTA for 30 min at 25° C. The fluorescence intensities of tubulin in the absence and presence of different concentrations of the agents were monitored in a JASCO FP-6500 spectrofluorometer (JASCO, Tokyo, Japan) using a cuvette of 0.3-cm path length.
The excitation wavelength was 295 nm. The inner filter effects were corrected using a formula: […],
where Aex and Aem are the absorbance at the excitation and emission wavelengths.
The dissociation constant (Kd) was estimated using the following equation. ΔF=ΔFmaxL/(Kd+L)
where, ΔF is change in the fluorescence intensity of the tubulin upon binding to noscapine or 9-aminonoscapine, ΔFmax is the maximum change in the fluorescence intensity of the protein when it is fully bound with noscapine or 9-aminonoscapine, and L is the concentration of the ligand.
The ΔFmax value was calculated by the GraphPad Prism 5 software. ΔF was calculated by subtracting the fluorescence intensity of tubulin in the absence of noscapine or 9-aminonoscapine from the fluorescence intensity of tubulin in the presence of different concentrations of noscapine or 9-aminonoscapine.
The data were statistically analyzed and curve fitted using GraphPad Prism 5 software. […]

[8] = test system: 1A9 (ovarian cancer cells); assay: Cell proliferation inhibition, 1A9; type: cell-based; details: 1A9, in words

Row | Kd (tubulin [7]) [µM] | Structure (SMILES) | proliferation of various human cancer cells [1] | inhibition of cell proliferation [2] | inhibition of cell proliferation [3] | inhibition of cell proliferation [4] | Average % increase in polymer level (tubulin [5]; 25 μM 9-aminonoscapine) [%] | Average % increase in polymer level (tubulin [5]; 50 μM 9-aminonoscapine) [%] | Average % increase in polymer level (tubulin [5]; 100 μM 9-aminonoscapine) [%] | Average % increase in polymer level (tubulin [5]; 100 μM 9-aminonoscapine, listed as 9-amino-noscapine) [%] | effect on the assembly of tubulin into microtubules in vitro (tubulin [5]; in words) | inhibition of cell proliferation [6] | inhibition of cell proliferation [8]
1 | 14 ± 1 | COc1ccc2c(c1OC)C(=O)O[C@@H]2[C@H]1c2c(c(N)c3c(c2OC)OCO3)CCN1C [9-aminonoscapine, (S)-6,7-dimethoxy-3-((R)-4-methoxy-6-methyl-9-amino-5,6,7,8-tetrahydro-[1,3]dioxolo[4,5-g]isoquinolin-5-yl)isobenzofuran-1(3H)-one] | inhibits the proliferation | effectively inhibits cell proliferation | effectively inhibits cell proliferation | effectively inhibits cell proliferation | 2.8 ± 0.98 | 3.2 ± 3.6 | 6.3 ± 3.8 | 6.3±3.8 | negligible effect | effectively inhibits cell proliferation | effectively inhibits cell proliferation
2 | 152 ± 1 | COc1ccc2c(c1OC)C(=O)O[C@@H]2[C@H]1c2c(cc3c(c2OC)OCO3)CCN1C [noscapine, (S)-6,7-dimethoxy-3-((R)-4-methoxy-6-methyl-5,6,7,8-tetrahydro[1,3]-dioxolo-[4,5-g]isoquinolin-5-yl)isobenzo-furan-1(3H)-one] |  |  |  |  |  |  |  |  |  |  | 
